Measurements as given in ChEMBL document CHEMBL1157734, “Design and synthesis of novel bis-oximinoalkanoic acids as potent PPAR alpha agonists” (Bioorg Med Chem Lett, 2010).
The source made the active and inactive calls. The calls are words filed in the database; no cut-off is given here.

What was measured:
[1] = molecular target: T1, Peroxisome proliferator-activated receptor alpha (Homo sapiens, UniProt Q07869); experiment: Agonist activity at human full length PPARalpha expressed in human HepG2 cells co-transfected with PPRE3-TK-luc assessed as […] by firefly luciferase assay; assay type: functional, cell-based
T1 sequence (Q07869 whole entry): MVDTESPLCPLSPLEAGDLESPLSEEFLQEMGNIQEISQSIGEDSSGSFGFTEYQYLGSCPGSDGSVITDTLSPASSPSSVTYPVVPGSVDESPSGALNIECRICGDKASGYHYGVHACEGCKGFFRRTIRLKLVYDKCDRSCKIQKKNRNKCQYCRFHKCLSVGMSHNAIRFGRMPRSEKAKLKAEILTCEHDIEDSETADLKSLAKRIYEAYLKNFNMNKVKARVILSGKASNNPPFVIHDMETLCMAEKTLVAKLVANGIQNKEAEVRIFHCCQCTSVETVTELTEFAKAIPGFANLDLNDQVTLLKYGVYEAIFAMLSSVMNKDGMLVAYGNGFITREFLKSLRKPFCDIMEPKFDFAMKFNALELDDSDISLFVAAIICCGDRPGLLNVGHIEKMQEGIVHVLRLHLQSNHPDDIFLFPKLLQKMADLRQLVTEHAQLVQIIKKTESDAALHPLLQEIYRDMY

[2] = molecular target: T2, Peroxisome proliferator-activated receptor gamma (Homo sapiens, UniProt P37231); experiment: Agonist activity at human full length PPARgamma expressed in human HepG2 cells co-transfected with PPRE3-TK-luc assessed as […] by firefly luciferase assay; assay type: functional, cell-based
T2 sequence (P37231 whole entry): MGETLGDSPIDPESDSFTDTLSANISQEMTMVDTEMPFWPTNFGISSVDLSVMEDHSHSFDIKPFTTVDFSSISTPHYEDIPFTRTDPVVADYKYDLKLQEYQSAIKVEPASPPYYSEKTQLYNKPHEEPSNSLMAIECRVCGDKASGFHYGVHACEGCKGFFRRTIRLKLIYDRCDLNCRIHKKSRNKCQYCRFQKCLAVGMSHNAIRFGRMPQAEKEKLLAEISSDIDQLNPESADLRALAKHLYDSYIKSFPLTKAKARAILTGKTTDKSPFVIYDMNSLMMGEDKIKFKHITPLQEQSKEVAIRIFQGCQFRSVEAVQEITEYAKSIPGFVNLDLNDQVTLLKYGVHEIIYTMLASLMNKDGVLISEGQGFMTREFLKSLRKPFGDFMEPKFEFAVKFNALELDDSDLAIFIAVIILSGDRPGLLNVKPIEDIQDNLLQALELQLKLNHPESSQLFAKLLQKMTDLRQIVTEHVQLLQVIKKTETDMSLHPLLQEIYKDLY

[3] = molecular target: T3, Peroxisome proliferator-activated receptor alpha (Homo sapiens) (UniProt Q07869); experiment: Agonist activity at human full length PPARalpha expressed in human HepG2 cells co-transfected with PPRE3-TK-luc assessed as […] by firefly luciferase assay relative to WY-14643; assay type: functional, cell-based; design: concentration or dose not given beside the values
T3 sequence (whole entry): T1 sequence (Q07869 whole entry)

[4] = molecular target: T4, Peroxisome proliferator-activated receptor delta (Homo sapiens) (UniProt Q03181); experiment: Agonist activity at human full length PPARdelta expressed in human HepG2 cells co-transfected with PPRE3-TK-luc assessed as […] at 1 uM by firefly luciferase assay; assay type: functional, cell-based
T4 sequence (whole entry): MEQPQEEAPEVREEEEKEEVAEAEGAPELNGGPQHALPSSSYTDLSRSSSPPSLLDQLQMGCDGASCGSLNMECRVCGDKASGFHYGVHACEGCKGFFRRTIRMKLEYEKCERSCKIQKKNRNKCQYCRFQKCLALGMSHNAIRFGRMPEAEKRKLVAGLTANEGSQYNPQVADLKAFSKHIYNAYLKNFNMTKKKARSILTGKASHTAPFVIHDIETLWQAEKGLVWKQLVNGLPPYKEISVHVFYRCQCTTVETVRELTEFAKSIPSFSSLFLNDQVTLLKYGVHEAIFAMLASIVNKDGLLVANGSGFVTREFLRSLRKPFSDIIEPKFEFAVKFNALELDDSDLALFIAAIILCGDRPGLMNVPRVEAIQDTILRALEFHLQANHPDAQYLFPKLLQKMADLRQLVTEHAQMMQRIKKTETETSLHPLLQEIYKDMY

Mus musculus = experiment: Reduction in serum triglyceride level in Swiss albino mouse at 10 mg/kg/day for 6 days relative to control; assay type: functional; design: scale not given: the % may be the effect or the level left
Homo sapiens = species: Homo sapiens; experiment: Selectivity for human full length PPARalpha over human full length PPARgamma

With `C/C(=N\OCCCCO/N=C(/CCC(=O)O)c1ccccc1)c1ccc(C)cc1` the EC50 [1] was 50 nM, the EC50 ([2]; read-out: EC50) was 2100 nM and the Activity [3] was 78%. For the same compound, the Activity [4] was “inactive” and the Activity (Mus musculus) was 13%.
`C/C(=N\OCCCCO/N=C(/CCC(=O)O)c1ccccc1)c1ccc2c(c1)CCCC2` was tested, and the EC50 [1] was 3 nM, the EC50 ([2]; read-out: EC50) was 200 nM and the Activity [3] was 86%. For the same compound, the Activity [4] was “inactive” and the Activity (Mus musculus) was 36%.
For `C/C(=N\OCCCCO/N=C(/CCC(=O)O)c1ccccc1)c1ccc(F)cc1`, the EC50 [1] was 50 nM, the EC50 ([2]; read-out: EC50) was 1400 nM and the Activity [3] was 101%. For the same compound, the Activity [4] was “inactive” and the Activity (Mus musculus) was 18%.
Work on `CCCCc1cccc(/C(C)=N/OCCCCO/N=C(/CCC(=O)O)c2ccccc2)c1` yielded an EC50 [1] of 500 nM, an EC50 ([2]; read-out: EC50) of 200 nM and an Activity [3] of 85%. The Activity [4] was “inactive” and the Activity (Mus musculus) was 31%.
`C/C(=N\OCCCCO/N=C(/CCC(=O)O)c1ccccc1)c1ccc(C(F)(F)F)cc1` showed an EC50 [1] of 400 nM, an EC50 ([2]; read-out: EC50) of 1400 nM and an Activity [3] of 79%. The Activity [4] was “inactive” and the Activity (Mus musculus) was 0.6%.
In the case of `COc1cc(/C(C)=N/OCCCCO/N=C(/CCC(=O)O)c2ccccc2)ccc1F`, the EC50 [1] is reported as 400 nM, the EC50 ([2]; read-out: EC50) is reported as 700 nM and the Activity [3] is reported as 122%. The Activity [4] was “inactive” and the Activity (Mus musculus) was 19%.
For `C/C(=N\OCCCCO/N=C(/CCC(=O)O)c1ccccc1)c1ccccc1`, the EC50 [1] was 2300 nM, the EC50 ([2]; hepg2) was “Not Active” and the Activity [3] was 46%. For the same compound, the Activity [4] was “inactive”.
`C/C(=N\OCCCCO/N=C(/CCC(=O)O)c1ccccc1)c1ccc2ccccc2c1` showed an EC50 [1] of 30 nM, an EC50 ([2]; read-out: EC50) of 200 nM and an Activity [3] of 61%. For the same compound, the Activity [4] was “inactive”, the Activity (Mus musculus) was 25% and the Ratio (Homo sapiens) was 6.
`Cc1oc(-c2ccccc2)nc1COc1ccc(CO/N=C(\CCC(=O)O)c2ccccc2)cc1` [IMIGLITAZAR] was tested, and the EC50 [1] was 5 nM, the Activity [3] was 116% and the Activity [4] was “inactive”. It also gave an Activity (Mus musculus) of 37%.
`C/C(=N\OCCCCO/N=C(/CCC(=O)O)c1ccccc1)c1ccc(C)c(C)c1` was tested, and the EC50 [1] was 2 nM, the EC50 ([2]; read-out: EC50) was 1000 nM and the Activity [3] was 89%. For the same compound, the Activity [4] was “inactive”, the Activity (Mus musculus) was 12% and the Ratio (Homo sapiens) was 320.
`COc1ccc(/C(C)=N/OCCCCO/N=C(/CCC(=O)O)c2ccccc2)cc1OC` showed an EC50 [1] of 100 nM, an EC50 ([2]; read-out: EC50) of 800 nM and an Activity [3] of 136%. The Activity [4] was “inactive” and the Activity (Mus musculus) was 30%.
`C/C(=N\OCCCCO/N=C(/CCC(=O)O)c1ccccc1)c1cccc(-c2ccccc2)c1` showed an EC50 [1] of 20 nM, an EC50 ([2]; read-out: EC50) of 100 nM and an Activity [3] of 83%. The Activity [4] was “inactive” and the Activity (Mus musculus) was 23%.
Compound `C/C(=N\OCCCCO/N=C(/CCC(=O)O)c1ccccc1)c1ccc(S(C)(=O)=O)cc1` has an EC50 [1] of 2400 nM, an EC50 ([2]; read-out: EC50) of 1900 nM and an Activity [3] of 41%. For the same compound, the Activity [4] was “inactive” and the Activity (Mus musculus) was 14%.
`COc1cc(/C(C)=N/OCCCCO/N=C(/CCC(=O)O)c2ccccc2)ccc1C` gave an EC50 [1] of 5 nM, an EC50 ([2]; read-out: EC50) of 1600 nM and an Activity [3] of 257%. The Activity [4] was “inactive” and the Activity (Mus musculus) was 36%.
For `COc1ccc(/C(C)=N/OCCCCO/N=C(/CCC(=O)O)c2ccccc2)cc1`, the EC50 [1] was 10 nM, the EC50 ([2]; read-out: EC50) was 1100 nM and the Activity [3] was 102%. The Activity [4] was “inactive”, the Activity (Mus musculus) was 35% and the Ratio (Homo sapiens) was 110.
